# Results from paper PMC8373063 (2021).
# Experiments:
# [1] = tested on: DNA Seq22 (DNA, other) GTGCCAGTTCGCTGGCACTGAAGGAAGGT; assay: fluorescence polarization; conditions: 100 mM NaCl, 1 mM MgCl2; 20 mM HEPES, 25 °C, 0.5 μM compound
# [2] = tested on: DNA S1 (DNA, single strand) AAAAGAAGGAAGGTGCTC; assay: fluorescence polarization; conditions: 100 mM NaCl, 1 mM MgCl2; 20 mM HEPES, 25 °C; 0.5 μM SMN-C2
# [3] = tested on: DNA Seq21 (DNA, hairpin) GCGCCGACTGAAGGAAGGAGTCGGCGC; assay: fluorescence polarization; conditions: 100 mM NaCl, 1 mM MgCl2; 20 mM HEPES, 25 °C, 0.5 μM compound
# [4] = tested on: S6 (DNA, single strand) AAAAGAAGGAGGGTGCTC; assay: fluorescence polarization; conditions: 100 mM NaCl, 1 mM MgCl2; 20 mM HEPES, 25 °C, 0.5 μM compound
# [5] = tested on: RNA Seq8 (RNA, single strand) UGAAGGAAGUU; assay: fluorescence polarization; conditions: 100 mM NaCl; 20 mM HEPES, 25 °C; 0.5 μM SMN-C2
# [6] = tested on: S4 (DNA, single strand) AAAAAGAAGAAGGTGCTC; assay: fluorescence polarization; conditions: 100 mM NaCl, 1 mM MgCl2; 20 mM HEPES, 25 °C, 0.5 μM compound
# [7] = tested on: DNA Seq20 (DNA, hairpin) TGAAGGAAGGTTTCGACCTTCCTTCA; assay: fluorescence polarization; conditions: 100 mM NaCl, 1 mM MgCl2; 20 mM HEPES, 25 °C, 0.5 μM compound
# [8] = tested on: DNA Seq7 (DNA, single strand) TTAAGGAAGGT; assay: fluorescence polarization; conditions: 100 mM NaCl, 1 mM MgCl2; 20 mM HEPES, 25 °C; 0.5 μM SMN-C2
# [9] = tested on: DNA Seq23 (DNA, mismatch bulge abasic) GCCAGGCGCACTTTCGAGTGCGCGAAGGAAGGCTGGC; assay: fluorescence polarization; conditions: 100 mM NaCl, 1 mM MgCl2; 20 mM HEPES, 25 °C, 0.5 μM compound
# [10] = tested on: DNA S26 (DNA, single strand) TGAAGGAAGG; assay: fluorescence polarization; conditions: 100 mM NaCl, 1 mM MgCl2; 20 mM HEPES, 25 °C; 0.5 μM SMN-C2
# [11] = tested on: RNA Seq16 (RNA, single strand) UGAAGGAAAGU; assay: fluorescence polarization; conditions: 100 mM NaCl; 20 mM HEPES, 25 °C; 0.5 μM SMN-C2
# [12] = tested on: S12 (DNA, single strand) AAAAGAAGTAAGGTGCTC; assay: fluorescence polarization; conditions: 100 mM NaCl, 1 mM MgCl2; 20 mM HEPES, 25 °C, 0.5 μM compound
# [13] = tested on: S16 (DNA, single strand) AAAAGAAGGAAGTTGCTC; assay: fluorescence polarization; conditions: 100 mM NaCl, 1 mM MgCl2; 20 mM HEPES, 25 °C, 0.5 μM compound
# [14] = tested on: S21 (DNA, single strand) AAAAAAAGGAAGGTGCTC; assay: fluorescence polarization; conditions: 100 mM NaCl, 1 mM MgCl2; 20 mM HEPES, 25 °C, 0.5 μM compound
# [15] = tested on: DNA Seq12 (DNA, single strand) TGAAAGAAGGT; assay: fluorescence polarization; conditions: 100 mM NaCl, 1 mM MgCl2; 20 mM HEPES, 25 °C; 0.5 μM SMN-C2
# [16] = tested on: RNA Seq4 (immobilised) (RNA, single strand) AAGAAGGAAGGUGC; assay: SPR, immobilised RNA; conditions: running buffer not shown; SMN-C2 up to 20 μM
# [17] = tested on: RNA Seq13 (RNA, single strand) UGAAGAAAGGU; assay: fluorescence polarization; conditions: 100 mM NaCl; 20 mM HEPES, 25 °C; 0.5 μM SMN-C2
# [18] = tested on: DNA Seq16 (DNA, single strand) TGAAGGAAAGT; assay: fluorescence polarization; conditions: 100 mM NaCl, 1 mM MgCl2; 20 mM HEPES, 25 °C; 0.5 μM SMN-C2
# [19] = tested on: S5 (DNA, single strand) AAAAGAAUGAAGGTGCTC; assay: fluorescence polarization; conditions: 100 mM NaCl, 1 mM MgCl2; 20 mM HEPES, 25 °C, 0.5 μM compound
# [20] = tested on: DNA Seq2 (DNA, single strand) GAAGGAAGG; assay: fluorescence polarization; conditions: 100 mM NaCl, 1 mM MgCl2; 20 mM HEPES, 25 °C; 0.5 μM SMN-C2
# [21] = tested on: RNA Seq20 (RNA, hairpin) UGAAGGAAGGUUUCGACCUUCCUUCA; assay: fluorescence polarization; conditions: 100 mM NaCl; 20 mM HEPES, 25 °C, 0.5 μM compound
# [22] = tested on: DNA Seq11 (DNA, single strand) TGGAGGAAGGT; assay: fluorescence polarization; conditions: 100 mM NaCl, 1 mM MgCl2; 20 mM HEPES, 25 °C; 0.5 μM SMN-C2
# [23] = tested on: DNA Seq13 (DNA, single strand) TGAAGAAAGGT; assay: fluorescence polarization; conditions: 100 mM NaCl, 1 mM MgCl2; 20 mM HEPES, 25 °C; 0.5 μM SMN-C2
# [24] = tested on: DNA S18 (DNA, single strand) AAAAGGAGGAAGGTGCTC; assay: fluorescence polarization; conditions: 100 mM NaCl, 1 mM MgCl2; 20 mM HEPES, 25 °C; 0.5 μM SMN-C2
smiles,measurement,setting,value
CCN1CCN(c2ccc3cc(-c4cn5cc(C)nc(C)c5n4)c(=O)oc3c2)C[C@@H]1C,Kd,[1],10.0 ± 0.5 µM
same,Kd,[2],15.3 ± 0.6 µM
same,Kd,[3],12.8 ± 4.7 µM
same,Kd,[4],33.3 ± 2.3 µM
same,Kd,[5],> 100 µM
same,Kd,[6],> > 50 µM
same,Kd,[7],52.0 ± 25.7 µM
same,Kd,[8],> 100 µM
same,Kd,[9],1.1 ± 0.2 µM
same,Kd,[10],6.2 ± 1.0 µM
same,Kd,[11],77.0 ± 26.0 µM
same,Kd,[12],37.4 ± 6.7 µM
same,Kd,[13],48.9 ± 12.2 µM
same,Kd,[14],> > 50 µM
same,Kd,[15],17.6 ± 3.4 µM
same,Kd,[16],5.4 µM
same,Kd,[17],> 100 µM
same,Kd,[18],27.4 ± 6.0 µM
same,Kd,[19],42.3 ± 4.2 µM
same,Kd,[20],34.3 ± 9.6 µM
same,Kd,[21],> >100 μM
same,Kd,[22],57.3 ± 20.0 µM
same,Kd,[23],> 100 µM
same,Kd,[24],> 50 µM
